PubChem BioAssay (NCI)
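Cultured in 96-well plates, cells were exposed to test compound for 48 hours across five concentrations. TGI: concentration producing complete growth inhibition.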

Tests used:
Assay in all cases: growth of human tumour cells (NCI), 48 h
786-0 renal = test system: 786-0 renal
A498 renal = test system: A498 renal
A549 NSCLC = test system: A549 NSCLC
ACHN renal = test system: ACHN renal
BT-549 breast = test system: BT-549 breast
CAKI-1 renal = test system: CAKI-1 renal
CCRF-CEM leukemia = test system: CCRF-CEM leukemia
COLO 205 colon = test system: COLO 205 colon
DU-145 prostate = test system: DU-145 prostate
EKVX NSCLC = test system: EKVX NSCLC
HCC-2998 colon = test system: HCC-2998 colon
HCT-116 colon = test system: HCT-116 colon
HCT-15 colon = test system: HCT-15 colon
HL-60(TB) leukemia = test system: HL-60(TB) leukemia
HOP-62 NSCLC = test system: HOP-62 NSCLC
HOP-92 NSCLC = test system: HOP-92 NSCLC
HS 578T breast = test system: HS 578T breast
HT29 colon = test system: HT29 colon
IGROV1 ovarian = test system: IGROV1 ovarian
K-562 leukemia = test system: K-562 leukemia
KM12 colon = test system: KM12 colon
LOX IMVI melanoma = test system: LOX IMVI melanoma
M14 melanoma = test system: M14 melanoma
MALME-3M melanoma = test system: MALME-3M melanoma
MCF7 breast = test system: MCF7 breast
MDA-MB-231 breast = test system: MDA-MB-231 breast
MDA-MB-435 = test system: MDA-MB-435
MDA-N = test system: MDA-N
MOLT-4 leukemia = test system: MOLT-4 leukemia
NCI-H226 lung = test system: NCI-H226 lung
NCI-H23 lung = test system: NCI-H23 lung
NCI-H460 lung = test system: NCI-H460 lung
NCI-H522 lung = test system: NCI-H522 lung
NCI/ADR-RES ovarian = test system: NCI/ADR-RES ovarian
OVCAR-3 ovarian = test system: OVCAR-3 ovarian
OVCAR-4 ovarian = test system: OVCAR-4 ovarian
OVCAR-5 ovarian = test system: OVCAR-5 ovarian
OVCAR-8 ovarian = test system: OVCAR-8 ovarian
PC-3 prostate = test system: PC-3 prostate
RPMI-8226 leukemia = test system: RPMI-8226 leukemia
RXF 393 renal = test system: RXF 393 renal
SF-268 CNS = test system: SF-268 CNS
SF-295 CNS = test system: SF-295 CNS
SF-539 CNS = test system: SF-539 CNS
SK-MEL-2 melanoma = test system: SK-MEL-2 melanoma
SK-MEL-28 melanoma = test system: SK-MEL-28 melanoma
SK-MEL-5 melanoma = test system: SK-MEL-5 melanoma
SK-OV-3 ovarian = test system: SK-OV-3 ovarian
SN12C renal = test system: SN12C renal
SNB-19 CNS = test system: SNB-19 CNS
SNB-75 CNS = test system: SNB-75 CNS
SR leukemia = test system: SR leukemia
SW-620 colon = test system: SW-620 colon
T-47D breast = test system: T-47D breast
TK-10 renal = test system: TK-10 renal
U251 CNS = test system: U251 CNS
UACC-257 melanoma = test system: UACC-257 melanoma
UACC-62 melanoma = test system: UACC-62 melanoma
UO-31 renal = test system: UO-31 renal

Measured: TGI

CC(=O)OCC(=O)O[C@@H]1[C@H]2[C@@H](OC(=O)c3ccccc3)[C@@H](C)C[C@]2(O)[C@H](OC(C)=O)[C@@]2(C)C(OC(C)=O)[C@]1(OC(C)=O)C[C@H]1C(=O)C(C)(C)C[C@@H]12 (some centres undefined)
> 50 µM: 786-0 renal | A498 renal | A549 NSCLC | ACHN renal | BT-549 breast | CAKI-1 renal | CCRF-CEM leukemia | COLO 205 colon | DU-145 prostate | EKVX NSCLC | HCC-2998 colon | HCT-116 colon | HCT-15 colon | HL-60(TB) leukemia | HOP-62 NSCLC | HOP-92 NSCLC | HS 578T breast | HT29 colon | IGROV1 ovarian | K-562 leukemia | KM12 colon | LOX IMVI melanoma | M14 melanoma | MALME-3M melanoma | MCF7 breast | MDA-MB-231 breast | MDA-MB-435 | MDA-N | MOLT-4 leukemia | NCI-H226 lung | NCI-H23 lung | NCI-H460 lung | NCI-H522 lung | NCI/ADR-RES ovarian | OVCAR-3 ovarian | OVCAR-4 ovarian | OVCAR-5 ovarian | OVCAR-8 ovarian | PC-3 prostate | RPMI-8226 leukemia | RXF 393 renal | SF-268 CNS | SF-295 CNS | SF-539 CNS | SK-MEL-2 melanoma | SK-MEL-28 melanoma | SK-MEL-5 melanoma | SK-OV-3 ovarian | SN12C renal | SNB-19 CNS | SNB-75 CNS | SR leukemia | SW-620 colon | T-47D breast | TK-10 renal | U251 CNS | UACC-257 melanoma | UACC-62 melanoma | UO-31 renal

Cc1ccc(-c2nc(N/N=C/C=C/c3ccccc3)c3ccccc3n2)cc1
47.9 µM: MDA-MB-231 breast
48.1 µM: OVCAR-5 ovarian | UACC-62 melanoma
75.9 µM: ACHN renal | MCF7 breast
52.2 µM: BT-549 breast
99.6 µM: RXF 393 renal
51.8 µM: EKVX NSCLC
96.4 µM: DU-145 prostate
> 100 µM: 786-0 renal | A549 NSCLC | CAKI-1 renal | CCRF-CEM leukemia | COLO 205 colon | HCC-2998 colon | HCT-116 colon | HCT-15 colon | HL-60(TB) leukemia | HOP-62 NSCLC | HOP-92 NSCLC | HS 578T breast | HT29 colon | IGROV1 ovarian | K-562 leukemia | KM12 colon | LOX IMVI melanoma | M14 melanoma | MALME-3M melanoma | MDA-MB-435 | MDA-N | MOLT-4 leukemia | NCI-H226 lung | NCI-H23 lung | NCI-H460 lung | NCI-H522 lung | NCI/ADR-RES ovarian | OVCAR-3 ovarian | OVCAR-4 ovarian | OVCAR-8 ovarian | PC-3 prostate | RPMI-8226 leukemia | SF-268 CNS | SF-295 CNS | SF-539 CNS | SK-MEL-28 melanoma | SK-MEL-5 melanoma | SK-OV-3 ovarian | SNB-19 CNS | SNB-75 CNS | SR leukemia | SW-620 colon | T-47D breast | U251 CNS | UACC-257 melanoma | UO-31 renal
99 µM: SN12C renal
99.2 µM: SK-MEL-2 melanoma
38.7 µM: TK-10 renal

CCOC(=O)c1sc2nc(SC)nc3c2c1NCN3c1ccc2c(c1)OCO2
71.2 µM: M14 melanoma
53.2 µM: MALME-3M melanoma
53.3 µM: SF-295 CNS
31.8 µM: UACC-62 melanoma
> 100 µM: BT-549 breast | CAKI-1 renal | COLO 205 colon | EKVX NSCLC | HCC-2998 colon | HCT-116 colon | HCT-15 colon | HL-60(TB) leukemia | HT29 colon | IGROV1 ovarian | K-562 leukemia | KM12 colon | LOX IMVI melanoma | MCF7 breast | MDA-N | NCI-H226 lung | NCI-H23 lung | OVCAR-5 ovarian | RPMI-8226 leukemia | SK-MEL-28 melanoma | SK-MEL-5 melanoma | SN12C renal | SR leukemia | T-47D breast | UACC-257 melanoma
18 µM: SF-268 CNS
30.8 µM: NCI/ADR-RES ovarian
50 µM: OVCAR-3 ovarian
8.07 µM: HS 578T breast
25.4 µM: A549 NSCLC
23.1 µM: U251 CNS
32.4 µM: HOP-92 NSCLC
45.1 µM: SW-620 colon
15 µM: 786-0 renal
43 µM: MDA-MB-231 breast
26 µM: ACHN renal
20.1 µM: OVCAR-8 ovarian
32.9 µM: CCRF-CEM leukemia
43.7 µM: TK-10 renal
78.8 µM: MOLT-4 leukemia
37.2 µM: PC-3 prostate
39.7 µM: DU-145 prostate
24.2 µM: SK-OV-3 ovarian
18.7 µM: HOP-62 NSCLC
52.7 µM: MDA-MB-435
58.8 µM: SK-MEL-2 melanoma
87.4 µM: A498 renal
31.2 µM: SNB-19 CNS
26.4 µM: OVCAR-4 ovarian
10.3 µM: RXF 393 renal
51.1 µM: SF-539 CNS
69.8 µM: UO-31 renal
98.1 µM: NCI-H522 lung
